# Experimental data from PMC7316822 (Scientific Reports, 2020).
# What was measured:
# MARK4 [1] = biological target: T1, MARK4 (Homo sapiens, UniProt Q96L34); test: Steady-state fluorescence quenching binding studies; details: for Kq (bimolecular quenching rate constant): Kq=Ksv/τ0; for ∆G: van't Hoff equation
# T1 construct: made in house
# T1 sequence (Q96L34 1-752): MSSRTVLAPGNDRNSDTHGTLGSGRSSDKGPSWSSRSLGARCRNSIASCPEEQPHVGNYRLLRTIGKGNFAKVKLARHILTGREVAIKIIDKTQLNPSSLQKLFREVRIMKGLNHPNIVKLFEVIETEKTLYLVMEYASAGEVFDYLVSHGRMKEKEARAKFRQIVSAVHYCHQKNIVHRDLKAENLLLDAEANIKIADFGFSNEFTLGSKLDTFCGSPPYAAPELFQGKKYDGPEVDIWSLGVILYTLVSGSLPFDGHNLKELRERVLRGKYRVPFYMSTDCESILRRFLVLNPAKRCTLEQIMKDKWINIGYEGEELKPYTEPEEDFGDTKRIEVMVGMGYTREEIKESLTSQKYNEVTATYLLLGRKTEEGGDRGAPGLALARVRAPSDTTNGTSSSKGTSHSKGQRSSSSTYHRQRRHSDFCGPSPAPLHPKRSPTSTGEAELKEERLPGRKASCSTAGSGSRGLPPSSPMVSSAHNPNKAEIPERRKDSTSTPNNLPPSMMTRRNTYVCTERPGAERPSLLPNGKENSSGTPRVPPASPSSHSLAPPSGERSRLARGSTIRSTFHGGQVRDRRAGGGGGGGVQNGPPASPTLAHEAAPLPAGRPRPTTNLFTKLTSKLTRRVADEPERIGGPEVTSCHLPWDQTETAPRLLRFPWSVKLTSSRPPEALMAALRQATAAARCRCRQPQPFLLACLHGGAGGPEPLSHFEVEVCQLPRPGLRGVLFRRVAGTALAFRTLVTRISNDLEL
# Method: Fluorescence quenching experiments were carried out on Jasco FP-6200 spectrofluorometer attached with an external water bath which serves as a temperature controller. The experiment was carried out at three different temperatures in triplicates. The protein concentration was kept constant at 4 µM while the ligand was titrated in the ratio of 1:9 at all three temperatures (288 K, 298 K, and 305 K). The fluorescence intensities were corrected for the inner filter effect according to Chi & Liu, 2011[57] the following equation:1 Fcorrected=Fobservede^(Aex+Aobs)/2
# Aex and Aobs are the absorption of the system at excitation and emission wavelengths, respectively. The fluorescence intensities were corrected after taking filter effect into account and all the reported spectra are the subtracted spectra taking fluorescence of ligand alone. Fluorescence quenching data was further analyzed employing Stern-Volmer, modified Stern-Volmer and van’t Hoff equation.
# To analyze the quenching data, Stern Volmer equation (Eq. 2) was deployed to find the Stern-Volmer constant:2 F0/F=1+Ksv[C] where F0 & F are fluorescence intensity of MARK4 in the absence and presence of RA, [C] is the concentration of RA. Ksv refers to Stern–Volmer constant.
# The Ksv value decreases with increasing temperature for static quenching while the opposite effect is observed for dynamic quenching. […] Thus, we can say that the MARK4-RA complex formation is driven by the dynamic mode of quenching. The mode of quenching was further confirmed from the value of bimolecular quenching rate constant, Kq, which was calculated as per Eq. 33 Kq=Ksv/τ0 τo refers to the average integral fluorescence lifetime of tryptophan and is reported to be 2.7 × 10^-9 s.
# Further, decrease in fluorescence in the presence of RA was analyzed by modified Stern-Volmer equation (Eq. 4)[63],[64].4 logF0−F/F=logK+nlog[C]
# Using van’t Hoff equation (Eq. 5)[65], thermodynamic parameters for ligand-protein interaction such as Gibbs free energy change (∆G), enthalpy change (∆H) and entropy change (∆S) can be calculated.5 ΔG=−RTLnK=ΔH−TΔS K is the binding constant, ∆H is enthalpy change, ∆G is Gibbs free energy change, ∆S is entropy change, and R is the universal gas constant (1.987 cal mol^−1 K^−1). The experimental fitting of data as per Eq. 5 is shown in Fig. 6C […]. The slope of this plot gives the value of -∆H/R, and the intercept giving the value of ∆S/R.“T”.
# MDA-MB-231 cells [2] = test: MTT cell viability, MDA-MB-231; type: cell-based, human; details: MDA-MB-231, 0–200 μM, 72 h
# MARK4 [3] = biological target: T1, MARK4; test: Isothermal titration calorimetry; type: binding
# Method: ITC measurements were done at 25 °C on a VP-ITC microcalorimeter from MicroCal, Inc (GE, MicroCal, USA). The first injection was a false one of 2 s with other injections set at 10 s. The sample cell was filled with MARK4 with reference cell with a reference buffer and a syringe containing 500 µM RA was titrated into MARK4. MicroCal Origin 8.0 was used to analyze the obtained data.
# phosphorylation of tau = test: Tau-phosphorylation assay (flow cytometry); type: cell-based, human; details: SH-SY5Y cells, IC50 and 2 × IC50 doses, 48 h, vs untreated cells
# Method: To see the effect of RA treatment on the activity of MARK4, Tau-phosphorylation studies were performed as per the previously published protocol. Briefly, SH-SY5Y cells were incubated with IC50 and 2 × IC50 doses of RA. Approximately, 10^6 cells were collected after 48 h treatment, washed with PBS, fixed and incubated with anti-tau antibodies at 25 °C for 2–4 hrs. Following the incubation, cells were washed and analyzed by flow cytometry.
# MARK4 [4] = biological target: T1, MARK4; test: ATPase enzyme inhibition assay (malachite green); type: biochemical; details: RA 0–18 µM, ATP 200 µM, MARK4 4 µM, 25 °C, 1 hour
# Method: To see the inhibitory effect of RA on MARK4, an ATPase assay was carried out in the presence of increasing concentrations of RA. Freshly prepared ATP (200 µM) was added to MARK4 (4 µM) and final reaction mixture of 100 μl was incubated at 25 °C for 1 hour. Malachite green (200 μl) was further added to the reaction mixture to stop the reaction followed by incubation of samples at room temperature for 20–25 minutes for the development of color. From the final reaction mixture, 100 μl was transferred to a 96-well plate in triplicates to measure spectrophotometrically at 620 nm.
# A549 cells = test: MTT cell viability, A549; type: cell-based, human; details: A549, 0–200 μM, 72 h
# Method: The cytotoxicity studies of selected synthesized compounds were accessed using standard MTT assay[16],[58],[59]. Briefly, 5000–6000 cells/well were plated in 96-well cell culture plate and next day cells were treated with selected compounds (0–200 μM) for 72 h. After 72 h incubation, the culture medium was removed and after washing with phosphate buffer saline (pH 7.4) cells were incubated with MTT solution (a mixture of 100 µl in complete medium and 25 µl of MTT solution taken from 5 mg/ml stock), at 37 °C in the CO2 incubator. Afterward, the resultant formazan crystals were dissolved in 150–200 µl of DMSO and the absorbance of the reaction product was measured at 570 nm using a multiplate ELISA reader (BioRad). The percentage of cell viability was calculated and plotted as a function of RA concentration.
# MARK4 [5] = test: MARK4 protein expression by western blot; type: cell-based, human; details: MDA-MB-231 cells, IC50 concentration, 48 h, immunoblotting
# Method: MDA-MB-231 vehicle control or RA treated cells were lysed in RIPA cell lysis buffer (Thermo Fisher Scientific, USA). Total protein was isolated and quantified by Bicinchoninic acid assay kit. Approximately 30–40 μg of whole-cell protein was diluted with 6X Laemmli’s buffer, boiled for 3–5 min and resolved using 12% SDS-polyacrylamide electrophoresis under reducing conditions. The resolved polypeptides were transferred to polyvinylidene fluoride (PVDF) membrane using blotting and identified using protein-specific primary antibodies and horseradish peroxidase conjugated secondary antibodies. Luminol was used as a chemiluminescent substrate for HRP[56].
# MDA-MB-231 cells [6] = test: Cell apoptosis assay (Annexin-V/PI staining); type: cell-based, human; details: 72 h
# Method: Apoptosis inducing properties of RA was studied using Annexin-V/PI staining as described previously[58],[60]. In brief, cells were treated with IC50 and 2 × IC50 doses of RA for 72 h at 37 °C, while control cells were treated with cell culture media only or vehicle control. After 72 h incubation, ~1.0–1.5 × 10^6 cells were collected, washed three times with PBS and stained using FITC labeled Annexin-V and PI (BD-Biosciences, USA). Stained cells were analyzed using BD LSR II Flow Cytometry Analyzer and FlowJo.
# [7] = Binding constant (K), fluorescence quenching studies, temperature not given
# [8] = van't Hoff plot, 288, 298 and 305 K
structure (smiles),measurement,setting,value
O=c1oc2c(O)c(O)cc3c(=O)oc4c(O)c(O)cc1c4c23 [Ellagic Acid],Kd,MARK4 [1]; [7],9900 µM
COc1cc(/C=C/C(=O)O)ccc1O [Ferulic Acid],binding constant (K),"MARK4 [1]; fluorescence quenching studies, temperature not given",50 M⁻¹
O=c1c(O)c(-c2ccc(O)c(O)c2)oc2cc(O)cc(O)c12 [Quercetin],Kd,MARK4 [1]; [7],9760 µM
O=C(/C=C/c1ccc(O)c(O)c1)O[C@H](Cc1ccc(O)c(O)c1)C(=O)O [Rosmarinic acid],cell growth / viability,MDA-MB-231 cells [2],significantly inhibited the growth
same,Kd,MARK4 [3],0.227 µM
same,∆S,"MARK4 [3]; ITC, 25 °C",−26.4 cal.mol^−1K^−1
same,Ksv (Stern-Volmer constant),MARK4 [1]; 288 K,11.5 10^5 M^−1
same,TΔS°,MARK4 [1]; 288 K,-12.0468 kcal/mol
same,n (number of binding sites),MARK4 [1]; 288 K,1.34
same,Kq (bimolecular quenching rate constant),MARK4 [1]; 288 K,4.25 10^14M^-1 s^-1
same,binding constant (K),"MARK4 [1]; 288 K, double log relation",5e+06 M⁻¹
same,∆G,MARK4 [1]; 288 K,-8.956 kcal/mol
same,Ksv (Stern-Volmer constant),MARK4 [1]; 298 K,24.9 10^5 M^−1
same,TΔS°,MARK4 [1]; 298 K,-12.4651 kcal/mol
same,n (number of binding sites),MARK4 [1]; 298 K,1.22
same,Kq (bimolecular quenching rate constant),MARK4 [1]; 298 K,9.22 10^14M^-1 s^-1
same,binding constant (K),"MARK4 [1]; 298 K, double log relation",2e+06 M⁻¹
same,∆G,MARK4 [1]; 298 K,-8.538 kcal/mol
same,Ksv (Stern-Volmer constant),MARK4 [1]; 305 K,29.4 10^5 M^−1
same,TΔS°,MARK4 [1]; 305 K,-12.7579 kcal/mol
same,n (number of binding sites),MARK4 [1]; 305 K,1.10
same,Kq (bimolecular quenching rate constant),MARK4 [1]; 305 K,10.88 10^14M^-1 s^-1
same,binding constant (K),"MARK4 [1]; 305 K, double log relation",700000 M⁻¹
same,∆G,MARK4 [1]; 305 K,-8.245 kcal/mol
same,Kd,MARK4 [1]; [7],0.1 µM
same,Kd,"MARK4 [1]; K (binding constant), 288 K, modified Stern-Volmer",0.2 µM
same,Kd,"MARK4 [1]; K (binding constant), 298 K, modified Stern-Volmer",0.5 µM
same,Kd,"MARK4 [1]; K (binding constant), 305 K, modified Stern-Volmer",1.43 µM
same,∆H,MARK4 [1]; [8],-21.003 kcal/mol
same,∆S,MARK4 [1]; [8],−41.82 calmol^−1K^−1
same,phosphorylation of tau,phosphorylation of tau,decreases phosphorylation of tau
same,IC50,MARK4 [4],6.2 µM
same,cell growth / viability,A549 cells,significantly inhibited the growth
same,protein expression level of MARK4,MARK4 [5],decreases the expression of MARK4
same,apoptotic cells,"MDA-MB-231 cells [6]; MDA-MB-231, 2 × IC50 concentration",15.90%
same,apoptotic cells,"MDA-MB-231 cells [6]; MDA-MB-231, IC50 concentration",9.0%
COc1cc(C=O)ccc1O [Vanillin],Kd,MARK4 [1]; [7],6.21 µM
